# Data taken from patent US4594345A, “Methylflavone-8-carboxylates” (Nippon Shinyaku Co. Ltd., priority 1982, dated 1986).
# Columns and labels:
# allergic asthma = details: cited from earlier work
# mast cells = details: believed; cited from earlier work
# carrageenin edema = experiment: Carrageenin edema in hind foot of rat (anti-inflammatory action); format: in vivo, rat (SD strain); parameters: concentration or dose not given beside the values; details: rats, oral one hour prior to carrageenin; foot volume three hours after
# Description: Anti-inflammatory action was evaluated by measuring the effect of the compounds (I) in inhibiting carrageenin edema as illustrated below.
# Carrageenin edema in hind foot of rat.
# SD strain rats of about 150 grams body weight were used; each group consisted of five rats. Thus, 0.1 ml of 0.5% carrageenin solution in physiological saline water was hypodermically injected to the right hind foot of rat. The test compound was given orally to rats one hour prior to the above carrageenin treatment. Then the volume of the foot before and three hours after the carrageenin treatment was measured and the difference was compared with that of the control group.
# [1] = test system: passive cutaneous anaphylaxis (PCA); experiment: Passive cutaneous anaphylaxis assay (PCA) in rats; format: in vivo, rat (Wister strain); details: Rattus norvegicus, po, 1 h, oral 10 mg/kg, one hour before antigen, read-out: PCA Inhibition Ratio %
# male mice = experiment: Acute toxicity, oral, observed for two weeks; format: in vivo; details: oral 4000 mg/kg, dead/total
# Description: Acute toxicity is observed for two weeks by oral adminsitration of 4000 mg/kg of the test compounds to male mice. One group consists of four mice. Numbers of dead mice are shown in numerators.
# SRS-A = experiment: Anti-SRS-A action (SRS-A induced shrinkage of guinea pig ileus); parameters: species or system guinea pig (Hartley strain male); details: treated five minutes before SRS-A (20 units), 5 min; for SRS-A Inhibition Ratio % 10^-6 M: 1 µM; for SRS-A Inhibition Ratio % 10^-7 M: 0.1 µM
# Outline: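 Excised ileum from male Hartley guinea pigs (300-350 g) in oxygenated Tyrode with 10^-7 g/ml atropine and 10^-6 g/ml pyrilamine. Compound added 5 min before 20 units SRS-A, and contraction recorded isotonically. Inhibition derived from contraction height with compound versus SRS-A alone.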
Structure (SMILES),duration of action (allergic asthma; in vivo),pharmaceutical effect by oral administration (allergic asthma; oral),"effect in allergic asthma (allergic asthma; reported by Cox, et al.)",inhibition of emission of chemical mediators (mast cells),% Inhibition (carrageenin edema) (carrageenin edema),inhibition in vivo at 10 mg/kg [1],Lethal Ratio (male mice),SRS-A Inhibition Ratio % 10^-6 M (SRS-A),SRS-A Inhibition Ratio % 10^-7 M (SRS-A)
O=C(O)c1cc(=O)c2c(OCC(O)COc3cccc4oc(C(=O)O)cc(=O)c34)cccc2o1 [sodium cromoglicate],its action is of short duration,does not show any pharmaceutical effect by oral administration,effective for allergic asthma,inhibits emission of chemical mediators from mast cells,–,–,–,–,–
"CCN(CC)C(=O)c1cccc2c(=O)c(C)c(-c3ccc(C(C)C)cc3)oc12 [Example 48, 4'-isopropyl-3-methylflavone-8-carboxylic acid N,N-diethylamide]",–,–,–,–,23.2%,27.2%,0/4,100%,23.3%
"CCOc1ccccc1-c1oc2c(C(=O)OCCO)cccc2c(=O)c1C [Example 4, Beta-Hydroxyethyl 2'-ethoxy-3-methylflavone 8-carboxylate]",–,–,–,–,33.9%,20.5%,0/4,67.2%,42.4%
